Laboratory results taken from patent publication US10137110B2, “1-cyclohexyl-2-phenylaminobenzimidazoles as mIDH1 inhibitors for the treatment of tumors” (Bayer Pharma Aktiengesellschaft, priority 2014, dated 2018).

What was measured:
IDH1 R132H enzyme = IDH1 R132H enzyme (Homo sapiens (Human), UniProt O75874, R132H); experiment: Mutant IDH1 R132H biochemical assay; details: NADPH consumption, luminescent readout; 1.5 nM enzyme, 250 μM α-KG, 1 μM NADPH, 30 minutes, 32° C.; test range 0.002-10 μM
IDH1 R132H enzyme, sequence (O75874 whole entry R132H): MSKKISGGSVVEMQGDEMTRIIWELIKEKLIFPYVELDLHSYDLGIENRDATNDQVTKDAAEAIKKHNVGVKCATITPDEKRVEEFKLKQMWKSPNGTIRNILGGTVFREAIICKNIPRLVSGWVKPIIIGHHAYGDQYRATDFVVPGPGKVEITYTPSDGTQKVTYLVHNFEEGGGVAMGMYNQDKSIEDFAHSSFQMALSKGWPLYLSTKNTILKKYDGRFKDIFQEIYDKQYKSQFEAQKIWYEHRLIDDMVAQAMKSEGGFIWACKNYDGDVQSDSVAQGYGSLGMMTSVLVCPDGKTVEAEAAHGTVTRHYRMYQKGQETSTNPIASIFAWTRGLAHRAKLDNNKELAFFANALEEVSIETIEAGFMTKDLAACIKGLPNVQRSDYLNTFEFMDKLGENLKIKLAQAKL
Protocol: mIDH1 catalyzes the NADPH-dependent reduction of alpha-ketoglutarate (α-KG) to (2R)-2-hydroxyglutarate (2-HG). NADPH consumption was measured by luminescent readout.
The biochemical reactions were performed at 32° C. in 384-well plates using a reaction volume of 41 μl and the following assay buffer conditions: 50 mM Tris pH 7.5, 100 mM NaCl, 20 mM MgCl2, 0.05% BSA, 0.01% Brij, 1 μM NADPH, and 250 μM α-KG. […] Test compounds were used in a concentration range between 0.002 and 10 μM. The final DMSO concentration was 2.4%.
The reaction was incubated for 30 minutes, then 40 μl of detection mix (0.75 μg/ml Luciferase, 0.02 U/ml Oxidoreductase, 4 μg/ml FMN, 2 μl/ml Decanal/Ethanol, 50 mM Tris pH 7.5, 0.5% Glycerin, 0.01% Tween-20, 0.05% BSA) was added. Luminescence was measured on a luminescent reader (10 seconds measuring time, 1 second integration period, 30% sensitivity). The decrease in luminescence is proportional to mIDH1 activity. IC50 values are determined by interpolation from plots of relative luminescence versus inhibitor concentration.

[1] = molecular target: mutated isocitrate dehydrogenase (mIDH) protein overexpressed in LN229 R132H cells (Homo sapiens (Human), UniProt O75874, R132H); experiment: Mutant IDH1 cellular assay (2-HG in medium of LN229 R132H cells); format: cell-based; details: 24 hours, fluorescence readout
mutated isocitrate dehydrogenase (mIDH) protein overexpressed in LN229 R132H cells, sequence (O75874 whole entry R132H): as above
Protocol: Mutant IDH1 Cellular Assay
Levels of (2R)-2-hydroxyglutarate (2HG) were measured in medium of a cell line with overexpression of mutated isocitrate dehydrogenase (mIDH) protein. mIDH catalyzes the NADPH-dependent reduction of alpha-ketoglutarate to 2-HG. Cells (LN229 R132H, Mohrenz et al., Apoptosis (2013) 18:1416-1425) were grown in DMEM containing 10% FCS. They were harvested by trypsin and seeded into 96-well plates. Cells were incubated overnight at 37° C. in 5% CO2. The next day test compounds were added to each cell well. The final concentration of DMSO was 0.1% and DMSO controls were included. The plates were then placed in an incubator for 24 hours.
2-HG was measured according to Balss et al. (Acta Neuropathol (2012) 124: 883-891). Briefly, HClO4 was added to each well and the plates were centrifuged. Aliquots are removed and incubated with hydroxyglutarate dehydrogenase (HGDH), diaphorase, NAD+, and resazurin. The conversion of resazurin to resorufin was detected by fluorescence spectroscopy at Ex 540 nm Em 600 nm. The increase in fluorescence is proportional to 2-HG production. IC50 values are determined by interpolation from plots of relative fluorescence vs inhibitor concentration.

Compound	IC50 (IDH1 R132H enzyme) [nM]	IC50 [1] [nM]
C[C@H]1C[C@H](n2c(Nc3ccc(OC(F)(F)F)cc3)nc3cc(-c4nnn[nH]4)ccc32)CC(C)(C)C1 (racemic) [Example 2-27, (±) 5-(1H-tetrazol-5-yl)-N-[4-(trifluoromethoxy)phenyl]-1-[(trans)-3,3,5-trimethylcyclohexyl]-1H-benzimidazol-2-amine]	1800	
C[C@@H]1C[C@H](n2c(Nc3ccc(OC(F)(F)F)cc3)nc3cc(-c4cnn(C)c4)ccc32)CC(C)(C)C1 (stereo in doubt) [Example 2-13-2]	1000	
Cc1noc(C)c1-c1ccc2c(c1)nc(Nc1ccc(OC(F)(F)F)cc1)n2[C@H]1C[C@@H](C)CC(C)(C)C1 (single isomer, unassigned) [Example 2-1-1, 5-(3,5-dimethyl-1,2-oxazol-4-yl)-N-[4-(trifluoromethoxy)phenyl]-1-[(cis)-3,3,5-trimethylcyclohexyl]-1H-benzimidazol-2-amine]	240	
C[C@@H]1C[C@H](n2c(Nc3ccc(OC(F)(F)F)cc3)nc3cc(-c4cc(F)c(O)c(F)c4)ccc32)CC(C)(C)C1 (racemic) [Example 2-33, (±) 2,6-difluoro-4-(2-{[4-(trifluoromethoxy)phenyl]amino}-1-[(cis)-3,3,5-trimethylcyclohexyl]-1H-benzimidazol-5-yl)phenol]	670	
COC(=O)c1cccc(-c2ccc3c(c2)nc(Nc2ccc(OC(F)(F)F)cc2)n3[C@H]2C[C@@H](C)CC(C)(C)C2)c1 (racemic) [Example 2-15, (±) Methyl 3-(2-{[4-(trifluoromethoxy)phenyl]amino}-1-[(cis)-3,3,5-trimethylcyclohexyl]-1H-benzimidazol-5-yl)benzoate]	1500	
C[C@H]1C[C@@H](n2c(Nc3ccc(OC(F)(F)F)cc3)nc3cc(-c4ccc(C(N)=O)cc4)ccc32)CC(C)(C)C1 (stereo in doubt) [Example 2-17]	440	
C[C@H]1C[C@@H](n2c(Nc3ccc(SC(F)(F)F)cc3)nc3cc(-c4ccn[nH]4)ccc32)CC(C)(C)C1 (stereo in doubt) [Example 2-22]	770	2500
Cc1nnc(-c2cc3nc(Nc4ccc(OC(F)(F)F)cc4)n(C4CC(C)(C)CC(C)(C)C4)c3cc2C)[nH]1 [Example 2-30, 6-methyl-5-(5-methyl-4H-1,2,4-triazol-3-yl)-1-(3,3,5,5-tetramethylcyclohexyl)-N-[4-(trifluoromethoxy)phenyl]-1H-benzimidazol-2-amine]	120	1500
Cc1n[nH]c(C)c1-c1ccc2c(c1)nc(Nc1ccc(SC(F)(F)F)cc1)n2[C@@H]1C[C@H](C)CC(C)(C)C1 (stereo in doubt) [Example 2-10]	140	2000
Cc1cc(-c2ccc3c(c2)nc(Nc2ccc(OC(F)(F)F)cc2)n3[C@H]2C[C@@H](C)CC(C)(C)C2)cc(C)c1O (racemic) [Example 2-34, (±) 2,6-dimethyl-4-(2-{[4-(trifluoromethoxy)phenyl]amino}-1-[(cis)-3,3,5-trimethylcyclohexyl]-1H-benzimidazol-5-yl)phenol]	180	
Cc1n[nH]c(C)c1-c1ccc2c(c1)nc(Nc1ccc(SC(F)(F)F)cc1)n2[C@H]1C[C@@H](C)CC(C)(C)C1 (stereo in doubt) [Example 2-10-2]	140	3000
Cc1nc(-c2ccc3c(c2)nc(Nc2ccc(OC(F)(F)F)cc2)n3C2CC(C)(C)CC(C)(C)C2)no1 [Example 2-26, 5-(5-Methyl-1,2,4-oxadiazol-3-yl)-1-(3,3,5,5-tetramethylcyclohexyl)-N-[4-(trifluoromethoxy)phenyl]-1H-benzimidazol-2-amine]	220	10000
Cc1cc(-c2ccc3c(c2)nc(Nc2ccc(OC(F)(F)F)cc2)n3[C@H]2C[C@@H](C)CC(C)(C)C2)n(C)n1 (stereo in doubt) [Example 2-12-2]	1600	
Cc1cc(-c2ccc3c(c2)nc(Nc2ccc(OC(F)(F)F)cc2)n3[C@@H]2C[C@H](C)CC(C)(C)C2)n(C)n1 (stereo in doubt) [Example 2-12-1]	4300	
Cc1noc(C)c1-c1ccc2c(c1)nc(Nc1ccc(SC(F)(F)F)cc1)n2[C@H]1C[C@@H](C)CC(C)(C)C1 (stereo in doubt) [Example 2-21-2]	290	2500
C[C@@H]1C[C@H](n2c(Nc3ccc(OC(F)(F)F)cc3)nc3cc(-c4cccc(C(=O)O)c4)ccc32)CC(C)(C)C1 (racemic) [Example 2-2, (±) 3-(2-{[4-(trifluoromethoxy)phenyl]amino}-1-[(cis)-3,3,5-trimethylcyclohexyl]-1H-benzimidazol-5-yl)benzoic acid]	70	360
Cc1cc2c(cc1-c1cc(O)no1)nc(Nc1ccc(OC(F)(F)F)cc1)n2C1CC(C)(C)CC(C)(C)C1 [Example 2-37, 5-[6-methyl-1-(3,3,5,5-tetramethylcyclohexyl)-2-{[4-(trifluoromethoxy)phenyl]amino}-1H-benzimidazol-5-yl]-1,2-oxazol-3-ol]	30	250
Cc1n[nH]cc1-c1ccc2c(c1)nc(Nc1ccc(OC(F)(F)F)cc1)n2[C@@H]1C[C@H](C)CC(C)(C)C1 (stereo in doubt) [Example 2-7]	110	1200
COC(=O)c1ccc(-c2ccc3c(c2)nc(Nc2ccc(OC(F)(F)F)cc2)n3[C@H]2C[C@@H](C)CC(C)(C)C2)cc1 (racemic) [Example 2-18, (±) Methyl 4-(2-{[4-(trifluoromethoxy)phenyl]amino}-1-[(cis)-3,3,5-trimethylcyclohexyl]-1H-benzimidazol-5-yl)benzoate]	4000	
C[C@H]1C[C@@H](n2c(Nc3ccc(OC(F)(F)F)cc3)nc3cc(-c4cn(C)nc4C(F)(F)F)ccc32)CC(C)(C)C1 (stereo in doubt) [Example 2-16]	290	
C[C@H]1C[C@@H](n2c(Nc3ccc(OC(F)(F)F)cc3)nc3cc(-c4cn(C)nc4C(F)(F)F)ccc32)CC(C)(C)C1 (stereo in doubt) [Example 2-16-1]	7800	
CCOc1noc(C)c1-c1ccc2c(c1)nc(Nc1ccc(OC(F)(F)F)cc1)n2[C@H]1C[C@@H](C)CC(C)(C)C1 (racemic) [Example 2-35, (±) 5-(3-ethoxy-5-methyl-1,2-oxazol-4-yl)-N-[4-(trifluoromethoxy)phenyl]-1-[(cis)-3,3,5-trimethylcyclohexyl]-1H-benzimidazol-2-amine]	240	
Cc1nnc(-c2ccc3c(c2)nc(Nc2ccc(OC(F)(F)F)cc2)n3C2CC(C)(C)CC(C)(C)C2)o1 [Example 2-25, 5-(5-Methyl-1,3,4-oxadiazol-2-yl)-1-(3,3,5,5-tetramethylcyclohexyl)-N-[4-(trifluoromethoxy)phenyl]-1H-benzimidazol-2-amine]	130	
C[C@@H]1C[C@H](n2c(Nc3ccc(OC(F)(F)F)cc3)nc3cc(-c4cn(C)nc4C(F)(F)F)ccc32)CC(C)(C)C1 (stereo in doubt) [Example 2-16-2]	780	
COc1cc(-c2ccc3c(c2)nc(Nc2ccc(OC(F)(F)F)cc2)n3[C@@H]2C[C@H](C)CC(C)(C)C2)ccn1 (stereo in doubt) [Example 2-14]	1300	
C[C@H]1C[C@@H](n2c(Nc3ccc(OC(F)(F)F)cc3)nc3cc(-c4ccnn4C)ccc32)CC(C)(C)C1 (stereo in doubt) [Example 2-20]		4000
C[C@H]1C[C@@H](n2c(Nc3ccc(OC(F)(F)F)cc3)nc3cc(-c4cnn(C)c4)ccc32)CC(C)(C)C1 (stereo in doubt) [Example 2-13-1]	240	
Cc1n[nH]c(C)c1-c1ccc2c(c1)nc(Nc1ccc(OC(F)(F)F)cc1)n2[C@@H]1C[C@H](C)CC(C)(C)C1 (stereo in doubt) [Example 2-5-1]	670	
C[C@@H]1C[C@H](n2c(Nc3ccc(OC(F)(F)F)cc3)nc3cc(-c4ccc(C(=O)O)cc4)ccc32)CC(C)(C)C1 (racemic) [Example 2-3, (±) 4-(2-{[4-(trifluoromethoxy)phenyl]amino}-1-[(cis)-3,3,5-trimethylcyclohexyl]-1H-benzimidazol-5-yl)benzoic acid]	460	
Cc1noc(C)c1-c1ccc2c(c1)nc(Nc1ccc(OC(F)(F)F)cc1)n2[C@H]1C[C@@H](C)CC(C)(C)C1 (single isomer, unassigned) [Example 2-1-2, 5-(3,5-dimethyl-1,2-oxazol-4-yl)-N-[4-(trifluoromethoxy)phenyl]-1-[(cis)-3,3,5-trimethylcyclohexyl]-1H-benzimidazol-2-amine]	70	
